Assay results: patent US20100056627A1, “PHARMACEUTICAL COMPOSITIONS OF ALKYL GALLATES” (priority 2006, published 2010)
In brackets after ≈: the same amount, converted by molar mass.

Legend:
[1] = tested on: gram-positive and gram-negative bacteria; test: MIC (minimum growth inhibition concentration), 2-fold serial agar plate dilution on Mueller Hinton II Agar, with concomitant alkyl gallate and salt; details: n-heptyl, n-hexyl, n-pentyl, n-butyl, isobutyl or n-propyl gallate at a concentration equal to or less than MIC
MRSA COL strain = test: Time required for killing bacteria, octyl gallate and propyl gallate (FIG. 1); type: cell-based, Staphylococcus aureus
Text: FIG. 1 is a graph showing shortening of the time required for killing bacteria by the concomitant use of octyl gallate and propyl gallate against MRSA COL strain.

[2] = tested on: Candida albicans ATCC 10231; test: Time required for killing mold, octyl gallate and propyl gallate (FIG. 2); type: cell-based; details: Candida albicans ATCC 10231, FIG. 2
Text: FIG. 2 is a graph showing shortening of the time required for killing mold by the concomitant use of octyl gallate and propyl gallate against Candida albicans ATCC 10231.

herpes virus (HSV-1) = test: Virucidal activity against HSV-1 (Tables 14, 15, FIG. 5); type: cell-based
influenza virus B/T/1/05 = test: Time course of virucidal activity at 37° C., infectivity by plaque assay in MDCK cells (FIGS. 6 to 12); type: cell-based; details: influenza B/T/1/05, FIGS. 6 and 8
Description: The experiments in FIGS. 7 to 12 were carried out at 37° C. The infectivity of viruses was determined using MDCK cells by the plaque assay method.
This virucidal activity of octyl gallate was reinforced by propyl gallate also against influenza virus A/Aichi (H3N2) in the same manner as above.

[3] = tested on: influenza virus A/Aichi (H3N2); test: Virucidal activity against influenza virus A/Aichi (H3N2) (Table 16); details: Table 16, NaCitrate 0.90%
[4] = tested on: Pseudomonas aeruginosa POA1; test: Antimicrobial action (MIC) of lauryl gallate with isoamyl gallate or propyl gallate in 3% NaCl; type: cell-based; details: for MIC: Pseudomonas aeruginosa, P. aoruginosa PAO1, MHA (3% NaCl)
influenza virus = test: Influenza virucidal activity of n-dodecyl gallate with n-hexyl gallate or n-butyl gallate (FIG. 3); type: cell-based
Text: FIG. 3 is a graph showing reinforcement of the influenza virucidal activity of n-dodecyl gallate by n-hexyl gallate and n-butyl gallate. The abscissa axis indicates the concentrations of n-dodecyl gallate.
The open circle in FIG. 3 indicates an influenza virucidal effect of dodecyl gallate alone.

clinical isolate MRSA = test: Oxacillin MIC against MRSA with concomitant octyl gallate and short-chain alkyl gallate (β-lactam sensitivity, ILSMR effect); type: cell-based, Staphylococcus aureus; details: Staphylococcus aureus, MRSA, 24 h, Isoamyl G 25 μg/mL; Octyl G 1.5625 μg/mL

In the case of `CCCCCCCCCOC(=O)c1cc(O)c(O)c(O)c1` [n-nonyl gallate], the “change of MIC value by addition of shorter-chain alkyl gallate” value (from here on “change of MIC value”) [1] is reported as “decreased”.
For `CCCOC(=O)c1cc(O)c(O)c(O)c1` [propyl gallate], the bactericidal activity alone (MRSA COL strain) was “low”, the fungicidal activity alone [2] was “low” and the No of plaques (herpes virus (HSV-1); Table 14, octyl gallate 0, propyl gallate 300 mg/L, J1816 90 mg/L, Na3citrate 0.90%) was 0. It also gave a No of plaques (herpes virus (HSV-1); Table 14, propyl gallate 100 mg/L, J1816 30 mg/L, Na3citrate 0.90%) of 0, a No of plaques (herpes virus (HSV-1); Table 14, propyl gallate 200 mg/L, J1816 60 mg/L, Na3citrate 0.90%) of 0 and a No of plaques (herpes virus (HSV-1); Table 14, propyl gallate 300 mg/L, J1816 90 mg/L, Na3citrate 0.90%) of 0. The No of plaques (herpes virus (HSV-1); Table 14, propyl gallate 400 mg/L, J1816 120 mg/L, Na3citrate 0.90%) was 0, the No of plaques (herpes virus (HSV-1); Table 14, propyl gallate 500 mg/L, J1816 150 mg/L, Na3citrate 0.90%) was 0 and the No of plaques (herpes virus (HSV-1); Table 15, octyl gallate 0, propyl gallate 300 mg/L, J1816 0, NaCitrate 0.90%) was 137. It also gave a No of plaques (herpes virus (HSV-1); Table 15, propyl gallate 100 mg/L, J1816 0, NaCitrate 0.90%) of 192, a No of plaques (herpes virus (HSV-1); Table 15, propyl gallate 200 mg/L, J1816 0, NaCitrate 0.90%) of 139 and a No of plaques (herpes virus (HSV-1); Table 15, propyl gallate 300 mg/L, J1816 0, NaCitrate 0.90%) of 162. For the same molecule, the No of plaques (herpes virus (HSV-1); Table 15, propyl gallate 400 mg/L, J1816 0, NaCitrate 0.90%) was 102, the No of plaques (herpes virus (HSV-1); Table 15, propyl gallate 500 mg/L, J1816 0, NaCitrate 0.90%) was 130 and the virucidal activity alone (influenza virus B/T/1/05) was “low”. For the same molecule, the No of plaques ([3]; octyl gallate 0, propyl gallate 300 mg/L, J1816 90 mg/L) was 52, the No of plaques ([3]; propyl gallate 100 mg/L, J1816 30 mg/L) was 84 and the No of plaques ([3]; propyl gallate 200 mg/L, J1816 60 mg/L) was 87. The No of plaques ([3]; propyl gallate 300 mg/L, J1816 90 mg/L) was 53, the No of plaques ([3]; propyl gallate 400 mg/L, J1816 120 mg/L) was 47 and the No of plaques ([3]; propyl gallate 500 mg/L, J1816 150 mg/L) was 42.
`CCCCCCCCCCOC(=O)c1cc(O)c(O)c(O)c1` [n-decyl gallate] was tested, and the “change of MIC value” value [1] was “decreased”.
With `CCCCCCCCCCCOC(=O)c1cc(O)c(O)c(O)c1` [n-undecyl gallate] the “change of MIC value” value [1] was “decreased”.
`CCCCCCCCCCCCOC(=O)c1cc(O)c(O)c(O)c1` [dodecyl gallate, n-dodecyl gallate] showed an MIC ([4]; PAO1, 24 h, concomitant none, 24 h) of 15.6 µg/mL (≈ 46.2 µM), an MIC ([4]; PAO1, 48 h, concomitant none, 48 h) of 31.2 µg/mL (≈ 92.3 µM) and an MIC ([4]; PAO1, 48 h, isoamyl gallate 50 μg/mL, 48 h) of 3.91 µg/mL (≈ 11.5 µM). For the same molecule, the MIC ([4]; PAO1, 48 h, isoamyl gallate 75 μg/mL, 48 h) was 0.977 µg/mL (≈ 2.89 µM), the MIC ([4]; PAO1, 48 h, propyl gallate 75 μg/mL, 48 h) was 0.488 µg/mL (≈ 1.44 µM) and the “antimicrobial action of lauryl gallate” value ([4]; isoamyl gallate or propyl gallate in the presence of 3% NaCl (Table 6)) was “reinforced”. The “virucidal effect of dodecyl gallate” value (influenza virus; addition of butyl gallate at a concentration without virucidal effect) was “reinforced markedly”, the “dodecyl gallate concentration at which no survivor was observed” value (influenza virus; coexistence of 100 μg/ml of hexyl gallate) was 20 µg/mL and the “change of MIC value” value [1] was “decreased”.
`Cc1onc(-c2ccccc2)c1C(=O)N[C@@H]1C(=O)N2[C@@H]1SC(C)(C)[C@@H]2C(=O)O` [oxacillin, reference compound] gave an MIC (clinical isolate MRSA) of 0.125 µg/mL.
